The data set in a line: recombinant UMI read abundance after kanamycin selection (control-corrected) (log10(CPM+1)); higher = more efficient recombination; extreme values may be limits of the assay; sequences stand for … in AGTGCAGAGAAAATCGGCCAGTTTTCTCTGCCTGCAGTCCGCATGCCGTGGGACCCCTTGGGTTCTAACCTGTTGCCTAGATTTATGCAGCGGACTGCCTTTCTCCCAAAGTGATAAACCGG…AGGTTGGTTTCACT; site = the 11-nt donor. In a few lines:
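In a pooled Escherichia coli screen for the IS621 bridge recombinase, donor and donor-binding-loop pairs were each placed with a 12-nt UMI on a plasmid bearing a promoterless kanamycin gene. This library was co-electroporated with a target plasmid encoding a fixed target and T7-inducible recombinase, and cells were plated either on IPTG (0.07 mM) plus kanamycin or without selection, in two replicates each. Recombinant UMIs were PCR-amplified across the donor–target junction and sequenced, and counts were converted to CPM, averaged over replicates, scaled by control-derived factors and reported as log10(CPM+1).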
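Further: IS621 bridge recombinase in Escherichia coli cells against a fixed T5 target plasmid.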

“CGCTTTGCATGGACCGGTTTTCCCGGTAATCCGTATTTGGT (site CGCTTTGCTAC)”: the “recombinant UMI read abundance (log10)” value came out at 1.08. The figure for “CGGAAACCATGGACCGGTTTTCCCGGTAATCCGTATTTGAT (site CGGAAACCTAT)” is 0. As for “CGGAAACCATGGACCGGTTTTCCCGGTAATCCGTATTTGAT (site CGGCAACCTAT)”, the “recombinant UMI read abundance (log10)” value stood at 0.00975. The figure for “CGGAAACCATGGACCGGTTTTCCCGGTAATCCGTATTTGAT (site CGGGAACCTAT)” is 0; for “CGGAAACCATGGACCGGTTTTCCCGGTAATCCGTATTTGAT (site CGGTAACCTAT)” it is 0; for “CGGAAACCATGGACCGGTTTTCCCGGTAATCCGTATTTGTA (site CGGAAACCTTA)” it is 0. Take “CGGAAACCATGGACCGGTTTTCCCGGTAATCCGTATTTGTA (site CGGAATCCTAA)”: the “recombinant UMI read abundance (log10)” value was found to be 0. For “CGGAAACCATGGACCGGTTTTCCCGGTAATCCGTATTTGTT (site CGGAAACCTAA)” the value was 0; for “CGGAAACCATGGACCGGTTTTCCCGGTAATCCGTATTTGTT (site CGGAACCCTAA)”, 0.00618. The figure for “CGGAAACCATGGACCGGTTTTCCCGGTAATCCGTATTTGTT (site CGGAAGCCTAA)” is 0.00793; for “CGGAAACCATGGACCGGTTTTCCCGGTAATCCGTATTTGTT (site CGGAATCCTAA)” it is 0; for “CGGAAATCATGGACCGGTTTTCCCGGTAATCCGTATTTGTT (site CGGAAATCTAA)” it is 2.29. The figure for “CGGAAATCATGGACCGGTTTTCCCGGTAATCCGTATTTGTT (site CGGAATCCTAA)” is 0; for “CGGAACCCATGGACCGGTTTTCCCGGTAATCCGTATTTGTT (site CGGAAACCTAA)” it is 0.0541. On to “CGGAACCCATGGACCGGTTTTCCCGGTAATCCGTATTTGTT (site CGGAACCCTAA)”, for which the “recombinant UMI read abundance (log10)” value was found to be 0.964.

With “CGGAACCCATGGACCGGTTTTCCCGGTAATCCGTATTTGTT (site CGGAAGCCTAA)”, the “recombinant UMI read abundance (log10)” value amounted to 0.00321. In the case of “CGGAACCCATGGACCGGTTTTCCCGGTAATCCGTATTTGTT (site CGGAATCCTAA)”, the “recombinant UMI read abundance (log10)” value amounted to 0.208. Consider “CGGAAGACATGGACCGGTTTTCCCGGTAATCCGTATTTGAA (site AGGAAGACTTG)”, for which the “recombinant UMI read abundance (log10)” value was determined as 0.

For the sequence “CGGAAGACATGGACCGGTTTTCCCGGTAATCCGTATTTGAA (site CGGAAGACTTT)”, the “recombinant UMI read abundance (log10)” value was determined as 2.24. For “CGGAAGCCATGGACCGGTTTTCCCGGTAATCCGTATTTGTT (site CGGAAACCTAA)” the value was 0; for “CGGAAGCCATGGACCGGTTTTCCCGGTAATCCGTATTTGTT (site CGGAACCCTAA)”, 0.00486; for “CGGAAGCCATGGACCGGTTTTCCCGGTAATCCGTATTTGTT (site CGGAAGCCTAA)”, 0.218. The figure for “CGGAAGCCATGGACCGGTTTTCCCGGTAATCCGTATTTGTT (site CGGAATCCTAA)” is 0; for “CGGAAGTCATGGACCGGTTTTCCCGGTAATCCGTATTTGCC (site CGGAAGTCTGG)” it is 2.88. Turning to “CGGAAGTCATGGACCGGTTTTCCCGGTAATCCGTATTTGCC (site CGGCAGTCTGG)”, the “recombinant UMI read abundance (log10)” value was found to be 0. For “CGGAAGTCATGGACCGGTTTTCCCGGTAATCCGTATTTGCC (site CGGGAGTCTGG)” the value was 0.686; for “CGGAAGTCATGGACCGGTTTTCCCGGTAATCCGTATTTGCC (site CGGTAGTCTGG)”, 1.08; for “CGGAATACATGGACCGGTTTTCCCGGTAATCCGTATTTGAT (site CGGAATACTAT)”, 2.16. For “CGGAATACATGGACCGGTTTTCCCGGTAATCCGTATTTGAT (site CGGAATCCTAA)” the value was 0.

In the case of “CGGAATCCATGGACCGGTTTTCCCGGTAATCCGTATTTGCT (site CGGAATCCTAA)”, the “recombinant UMI read abundance (log10)” value came to 0.106. The figure for “CGGAATCCATGGACCGGTTTTCCCGGTAATCCGTATTTGCT (site CGGAATCCTAC)” is 0; for “CGGAATCCATGGACCGGTTTTCCCGGTAATCCGTATTTGCT (site CGGAATCCTAG)” it is 2.08; for “CGGAATCCATGGACCGGTTTTCCCGGTAATCCGTATTTGCT (site CGGAATCCTAT)” it is 0.767. For “CGGAATCCATGGACCGGTTTTCCCGGTAATCCGTATTTGTC (site CGGAATCCTAA)” the value was 0.

For the sequence “CGGAATCCATGGACCGGTTTTCCCGGTAATCCGTATTTGTC (site CGGAATCCTCA)”, the “recombinant UMI read abundance (log10)” value was found to be 0.00507.

For “CGGAATCCATGGACCGGTTTTCCCGGTAATCCGTATTTGTC (site CGGAATCCTGA)”, the “recombinant UMI read abundance (log10)” value came to 2.06.

Consider “CGGAATCCATGGACCGGTTTTCCCGGTAATCCGTATTTGTC (site CGGAATCCTTA)”, for which the “recombinant UMI read abundance (log10)” value was 0. For “CGGAATGCATGGACCGGTTTTCCCGGTAATCCGTATTTGTT (site CGGAATACTAA)” the value was 2. With “CGGAATGCATGGACCGGTTTTCCCGGTAATCCGTATTTGTT (site CGGAATCCTAA)”, the “recombinant UMI read abundance (log10)” value came out at 0.00325.

As to “CGGAATGCATGGACCGGTTTTCCCGGTAATCCGTATTTGTT (site CGGAATGCTAA)”, the “recombinant UMI read abundance (log10)” value came to 2.84. For “CGGAATGCATGGACCGGTTTTCCCGGTAATCCGTATTTGTT (site CGGAATTCTAA)” the value was 0; for “CGGACACCATGGACCGGTTTTCCCGGTAATCCGTATTTGCT (site CGGACAACTAG)”, 0.

“CGGACACCATGGACCGGTTTTCCCGGTAATCCGTATTTGCT (site CGGACACCTAG)”: the “recombinant UMI read abundance (log10)” value is 0.

“CGGACACCATGGACCGGTTTTCCCGGTAATCCGTATTTGCT (site CGGACAGCTAG)”: the “recombinant UMI read abundance (log10)” value was 0.00902. The figure for “CGGACACCATGGACCGGTTTTCCCGGTAATCCGTATTTGCT (site CGGACATCTAG)” is 0; for “CGGACAGCATGGACCGGTTTTCCCGGTAATCCGTATTTGCT (site CGGACAACTAG)” it is 0.393. For “CGGACAGCATGGACCGGTTTTCCCGGTAATCCGTATTTGCT (site CGGACACCTAG)” the value was 0; for “CGGACAGCATGGACCGGTTTTCCCGGTAATCCGTATTTGCT (site CGGACAGCTAG)”, 2.07; for “CGGACAGCATGGACCGGTTTTCCCGGTAATCCGTATTTGCT (site CGGACATCTAG)”, 0. The figure for “CGGACATCATGGACCGGTTTTCCCGGTAATCCGTATTTGTT (site CGGACATCTAA)” is 2.07; for “CGGACATCATGGACCGGTTTTCCCGGTAATCCGTATTTGTT (site CGGACATCTAC)” it is 0.00517; for “CGGACATCATGGACCGGTTTTCCCGGTAATCCGTATTTGTT (site CGGACATCTAG)” it is 0. “CGGACATCATGGACCGGTTTTCCCGGTAATCCGTATTTGTT (site CGGACATCTAT)”: the “recombinant UMI read abundance (log10)” value amounted to 0. The figure for “CGGACTCCATGGACCGGTTTTCCCGGTAATCCGTATTTGTG (site CGGAATCCTAA)” is 0.00428; for “CGGACTCCATGGACCGGTTTTCCCGGTAATCCGTATTTGTG (site CGGACTCCTCA)” it is 0.0192; for “CGGAGATCATGGACCGGTTTTCCCGGTAATCCGTATTTGCT (site CGGAAATCTAG)” it is 1.27. “CGGAGATCATGGACCGGTTTTCCCGGTAATCCGTATTTGCT (site CGGACATCTAG)”: the “recombinant UMI read abundance (log10)” value is 0.

On to “CGGAGATCATGGACCGGTTTTCCCGGTAATCCGTATTTGCT (site CGGAGATCTAG)”, for which the “recombinant UMI read abundance (log10)” value is 3.03.

Turning to “CGGAGATCATGGACCGGTTTTCCCGGTAATCCGTATTTGCT (site CGGATATCTAG)”, the “recombinant UMI read abundance (log10)” value stood at 0. The figure for “CGGAGGACATGGACCGGTTTTCCCGGTAATCCGTATTTGCC (site CGGAGGACTGG)” is 2.76; for “CGGAGTCCATGGACCGGTTTTCCCGGTAATCCGTATTTGTC (site CGGAATCCTAA)” it is 0; for “CGGAGTCCATGGACCGGTTTTCCCGGTAATCCGTATTTGTC (site CGGAGTCCTGA)” it is 1.34. For “CGGATGACATGGACCGGTTTTCCCGGTAATCCGTATTTGAT (site CGGATGACTAT)” the value was 2.14; for “CGGATTCCATGGACCGGTTTTCCCGGTAATCCGTATTTGTA (site CGGAATCCTAA)”, 0.0133; for “CGGATTCCATGGACCGGTTTTCCCGGTAATCCGTATTTGTA (site CGGATTCCTTA)”, 0. For “CGGATTTCATGGACCGGTTTTCCCGGTAATCCGTATTTGTT (site CGGAATCCTAA)” the value was 0; for “CGGATTTCATGGACCGGTTTTCCCGGTAATCCGTATTTGTT (site CGGATTTCTAA)”, 0.891. On to “CGGCAACCATGGACCGGTTTTCCCGGTAATCCGTATTTGAT (site CGGAAACCTAT)”, for which the “recombinant UMI read abundance (log10)” value was found to be 0.

The values are drawn from the supplement of paper PMC11208160.
